In patent publication US12643871B2, “Aryl formamide compound containing chiral sulfur oxide or salt thereof, preparation method, herbicidal composition and use thereof” (Qingdao Kingagroot Chemical Compound Co., Ltd., priority 2019, dated 2026):

Legend:
Assay type in all cases: in vivo
Abutilon theophrasti [1] = test: Comparison experiment (post-emergence) against racemate / S configuration; settings: 30 g/ha; 3-4 weeks after sowing, 4-5 leaf-stage of weed, 25DAA
Source text: (§1) The above growth control rates are fresh weight control rates.
(§2) Experiment on weeding effect in post-emergence stage: monocotyledonous and dicotyledonous weed seeds (Descurainia sophia, Capsella bursa-pastoris, Galium aparine, Stellaria media, Lithospermum arvense, Rorippa indica, Alopecurus aequalis, Beckmannia syzigachne, Sclerochloa dura, Phleum paniculatum, Bromus japonicus, Aegilops tauschii, Phalaris arundinacea, Amaranthus retroflexus, Chenopodiaceae, Commelina communis, Sonchus arvensis, convolvulus arvensis, Cirsium setosum, Solanum nigrum, Acalypha australis, Digitaria sanguinalis, Echinochloa crusgalli, Setaria viridis, Setaria glauca, Leptochloa chinensis, Monochoria vaginalis, Sagittaria trifolia, Scirpus juncoides, Cyperus rotundus, Cyperus iria, Cyperus difformis, Fimbristylis, Portulaca oleracea, Xanthium sibiricum, Pharbitis nil) and major crop seeds (wheat, corn, rice, soybean, cotton, oilseed rape, millet, sorghum, potato, sesame, ricinus) were placed in plastic pots filled with soil, then covered with 0.5-2 cm of soil, allowed to grow in a good greenhouse environment. […] The tested compounds of the present invention were respectively dissolved in acetone, then added with Tween 80 and 1.5 liter/ha of emulsifiable concentrate of methyl oleate as synergist, diluted with a certain amount of water to obtain a solution with a certain concentration, and sprayed with a spray tower onto the plants. […]
(§3) If there is no clear marker, the post-seedling test conditions are the same as above, and the experimental results are shown in Tables 4-7.

Green Setaria viridis = test: as above; settings: 60 g/ha; 3-4 weeks after sowing, 4-5 leaf-stage of weed, 25DAA
Source text: as §1, §2, §3

Leptochloa chinensis = test: as above; settings: 60 g/ha; 3-4 weeks after sowing, 4-5 leaf-stage of weed, 25DAA
Source text: as §1, §2, §3

Digitaria sanguinalis [2] = test: as above; settings: 30 g/ha, 3-4 weeks after sowing, 4-5 leaf-stage of weed, 25DAA; for pest or weed control at 30 g/ha: Digitaria sanguinalis, post-emergence, 600 h
Abutilon theophrasti [3] = test: Weeding effect in post-emergence stage; settings: 250 g/ha; 2 leaf stage; 15 days after application; fresh weight control rate
In short: (§4)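 Reported levels reflect fresh weight growth control rate banded 0 (<5%) through 5 (>85%), averaged over three repetitions. Treatment: foliar spray of 2-leaf-stage greenhouse plants at 15 to 500 g/ha, with 1.5 liter/ha methyl oleate synergist; assessment 15 days after application.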

Amaranthus retroflexus = test: Weeding effect in post-emergence stage; settings: 250 g/ha; 2 leaf stage; 15 days after application; fresh weight control rate
In short: as §4

Digitaria sanguinalis [4] = test: Weeding effect in post-emergence stage; settings: 250 g/ha; 2 leaf stage; 15 days after application; fresh weight control rate
In short: as §4

Echinochloa crusgali = test: Weeding effect in post-emergence stage; settings: 250 g/ha; 2 leaf stage; 15 days after application; fresh weight control rate
In short: as §4

Setaria viridis = test: Weeding effect in post-emergence stage; settings: 250 g/ha; 2 leaf stage; 15 days after application; fresh weight control rate
In short: as §4

[5] = test system: key weeds such as Digitaria sanguinalis, Leptochloa chinensis; test: Comparison experiment (post-emergence, Tables 4-7), herbicidal activity on weeds not listed separately; settings: dose of 125, 60, 30, 15 g/ha
In short: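 Readout: fresh weight control rate, counted 15 days post-spray and averaged over three replicates. Pot-grown plants (seeds under 0.5-2 cm soil) were treated at the 2 leaf stage, two weeks after sowing, with 15–500 g/ha compound plus methyl oleate synergist at 1.5 liter/ha.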

rice and other crops = test: Comparison experiment (post-emergence, Tables 4-7), crop safety; settings: dose of 125, 60, 30, 15 g/ha
Source text: as §1
Experiment on weeding effect in post-emergence stage: monocotyledonous and dicotyledonous weed seeds (Descurainia sophia, Capsella bursa-pastoris, Galium aparine, Stellaria media, Lithospermum arvense, Rorippa indica, Alopecurus aequalis, Beckmannia syzigachne, Sclerochloa dura, Phleum paniculatum, Bromus japonicus, Aegilops tauschii, Phalaris arundinacea, Amaranthus retroflexus, Chenopodiaceae, Commelina communis, Sonchus arvensis, convolvulus arvensis, Cirsium setosum, Solanum nigrum, Acalypha australis, Digitaria sanguinalis, Echinochloa crusgalli, Setaria viridis, Setaria glauca, Leptochloa chinensis, Monochoria vaginalis, Sagittaria trifolia, Scirpus juncoides, Cyperus rotundus, Cyperus iria, Cyperus difformis, Fimbristylis, Portulaca oleracea, Xanthium sibiricum, Pharbitis nil) and major crop seeds (wheat, corn, rice, soybean, cotton, oilseed rape, millet, sorghum, potato, sesame, ricinus) were placed in plastic pots filled with soil, then covered with 0.5-2 cm of soil, allowed to grow in a good greenhouse environment. After 2 weeks of sowing, the test plants were treated in the 2 leaf stage. The tested compounds of the present invention were respectively dissolved in acetone, then added with Tween 80 and 1.5 liter/ha of emulsifiable concentrate of methyl oleate as synergist, diluted with a certain amount of water to obtain a solution with a certain concentration, and sprayed with a spray tower onto the plants. After the application, the plants were cultured for 15 days in the greenhouse, and then the experimental results of the weeding were counted. The doses of the used compounds were 500, 250, 125, 60, 30, 15 g/ha, and the averages were obtained by repeating for three times.
as §3

Row | Structure (SMILES) | Results of comparison experiment, Abutilon theophrasti (30 g/ha) (Abutilon theophrasti [1]) | Results of comparison experiment, Green Setaria viridis (60 g/ha) (Green Setaria viridis) | Results of comparison experiment, Leptochloa chinensis (60 g/ha) (Leptochloa chinensis) | pest or weed control at 30 g/ha (Digitaria sanguinalis [2]) | Results of comparison experiment, Digitaria sanguinalis (30 g/ha) (Digitaria sanguinalis [2]) | weeding effect in post-emergence stage, activity level (growth control rate), Abutilon theophrasti (Abutilon theophrasti [3]) | weeding effect in post-emergence stage, activity level (growth control rate), Amaranthus retroflexus (Amaranthus retroflexus) | weeding effect in post-emergence stage, activity level (growth control rate), Digitaria sanguinalis (Digitaria sanguinalis [4]) | weeding effect in post-emergence stage, activity level (growth control rate), Echinochloa crusgali (Echinochloa crusgali) | weeding effect in post-emergence stage, activity level (growth control rate), Setaria viridis (Setaria viridis) | activity to key weeds such as Digitaria sanguinalis, Leptochloa chinensis compared with the corresponding racemate or S configuration [5] | safety to rice and other crops compared with the corresponding racemate or S configuration (rice and other crops)
1 | Cc1nnc(NC(=O)c2ccc(C(F)(F)F)c([S+](C)[O-])c2F)o1 (single isomer, unassigned) [Control Compound C] | 60% | 20% | 0% | 0% | – | – | – | – | – | – | – | –
2 | Cc1nnc(NC(=O)c2ccc(C(F)(F)F)c([S+](C)[O-])c2F)o1 (single isomer, unassigned) [Control Compound D] | 50% | 10% | 0% | – | 0% | – | – | – | – | – | – | –
3 | Cc1nnc(NC(=O)c2ccc(C(F)(F)F)c([S@@+](C)[O-])c2F)o1 [Compound 1] | 100% | 80% | 70% | – | 90% | 5 (Level 5: growth control rate is above 85%) | 5 (Level 5: growth control rate is above 85%) | 3 (Level 3: growth control rate is greater than or equal to 40% and less than 60%) | 5 (Level 5: growth control rate is above 85%) | 3 (Level 3: growth control rate is greater than or equal to 40% and less than 60%) | – | –
4 | CNCC[S@@+]([O-])c1c(C(F)(F)F)ccc(C(=O)Nc2nnc(C)o2)c1F [Compound 67] | – | – | – | – | – | 5 (Level 5: growth control rate is above 85%) | 5 (Level 5: growth control rate is above 85%) | 5 (Level 5: growth control rate is above 85%) | 5 (Level 5: growth control rate is above 85%) | 5 (Level 5: growth control rate is above 85%) | better activity | higher safety
5 | COC[S+]([O-])c1c(C(F)(F)F)ccc(C(=O)Nc2nnc(C)o2)c1F (stereo not drawn) [Compound 69] | – | – | – | – | – | 5 (Level 5: growth control rate is above 85%) | 5 (Level 5: growth control rate is above 85%) | 5 (Level 5: growth control rate is above 85%) | 5 (Level 5: growth control rate is above 85%) | 5 (Level 5: growth control rate is above 85%) | better activity | higher safety
6 | CC(C)=NOCC[S@@+]([O-])c1c(C(F)(F)F)ccc(C(=O)Nc2nnc(C)o2)c1F [Compound 166] | – | – | – | – | – | 5 (Level 5: growth control rate is above 85%) | 5 (Level 5: growth control rate is above 85%) | 5 (Level 5: growth control rate is above 85%) | 5 (Level 5: growth control rate is above 85%) | 5 (Level 5: growth control rate is above 85%) | better activity | higher safety
7 | Cc1nnc(NC(=O)c2ccc(C(F)(F)F)c([S@@+]([O-])C[S+](C)[O-])c2F)o1 (stereo partly drawn) [Compound 205] | – | – | – | – | – | 5 (Level 5: growth control rate is above 85%) | 5 (Level 5: growth control rate is above 85%) | 5 (Level 5: growth control rate is above 85%) | 5 (Level 5: growth control rate is above 85%) | 5 (Level 5: growth control rate is above 85%) | better activity | higher safety
8 | CCC[S@@+]([O-])c1c(C(F)(F)F)ccc(C(=O)N(c2nnc(C)o2)C(C)OC(=O)OCC)c1F (stereo partly drawn) [Compound 261] | – | – | – | – | – | 5 (Level 5: growth control rate is above 85%) | 5 (Level 5: growth control rate is above 85%) | 5 (Level 5: growth control rate is above 85%) | 5 (Level 5: growth control rate is above 85%) | 5 (Level 5: growth control rate is above 85%) | better activity | higher safety
9 | CCC[S@@+]([O-])c1c(C(F)F)ccc(C(=O)Nc2nnc(C)o2)c1Cl [Compound 617] | – | – | – | – | – | 5 (Level 5: growth control rate is above 85%) | 5 (Level 5: growth control rate is above 85%) | 5 (Level 5: growth control rate is above 85%) | 5 (Level 5: growth control rate is above 85%) | 5 (Level 5: growth control rate is above 85%) | better activity | higher safety
10 | Cc1nnc(NC(=O)c2ccc(C(F)F)c([S+](C)[O-])c2F)o1 (stereo not drawn) [Control Compound E] | 60% | 25% | 10% | 5% | – | – | – | – | – | – | – | –
